The test system of assay [1] is HCV sub-genomic replicon in GS4.3 cells (HuH-7 hepatoma cells). Put plainly: Quantitation by ELISA of Neomycin phosphotransferase II (NPTII) in the HCV sub-genomic replicon, GS4.3. Format: cell-based, hepatitis C virus. The note with it: Hepatitis C virus, Huh-7. In a few lines: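 HuH-7 GS4.3 cells carrying HCV sub-genomic replicon 1377/NS3-3′, treated 72 h at 37 °C without G418 with 3-fold dilutions from 10 μM to 56 pM (1% DMSO). NPTII in cell lysates measured by direct ELISA with TMB readout at 450 nm. EC50 from 4-parameter fit of percent DMSO-control signal.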

For assay [2], the target named is T1, full-length NS3/NS4A-2 (HCV NS3 protease) (Hepatitis C virus genotype 1a, UniProt P27958).
T1 construct: Recombinant E. coli or Baculovirus full-length NS3 was diluted to 3.33 μM with assay buffer; made in house; host or cells: E. coli or baculovirus (BV) expression system
The experiment in a line: NS3-NS4 protease assay / NS3 inhibition assay (RETS1 substrate, fluorescence kinetic read). Format: biochemical. In a few lines: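 Full-length NS3 from E. coli (2 nM in assay) or baculovirus (3 nM) was precomplexed with excess NS4A-2 peptide, then preincubated 10 min at room temperature with serially diluted compounds starting at 50 microM. Reaction was started with RETS1 substrate at 8 μM before addition and read kinetically for 30 min (ex 335/em 495 nm). Four-parameter IC50s were converted to Ki by Cheng-Prusoff using Km 2.03 μM (E. coli) or 1.74 μM (BV).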

[3] abbreviates: GS4.3 cells, 72 h incubation, NPTII ELISA, read-out: Replicon EC50.
[4] abbreviates: recombinant E. coli or Baculovirus full-length NS3 with NS4A-2, read-out: NS3-NS4 IC50.

SMILES strings stand for the structures. Read-outs that look alike come from different tables or passages of the source.

The values below come from patent US7829665B2 (priority 2005, dated 2010).

T1 sequence (P27958 1027-1657): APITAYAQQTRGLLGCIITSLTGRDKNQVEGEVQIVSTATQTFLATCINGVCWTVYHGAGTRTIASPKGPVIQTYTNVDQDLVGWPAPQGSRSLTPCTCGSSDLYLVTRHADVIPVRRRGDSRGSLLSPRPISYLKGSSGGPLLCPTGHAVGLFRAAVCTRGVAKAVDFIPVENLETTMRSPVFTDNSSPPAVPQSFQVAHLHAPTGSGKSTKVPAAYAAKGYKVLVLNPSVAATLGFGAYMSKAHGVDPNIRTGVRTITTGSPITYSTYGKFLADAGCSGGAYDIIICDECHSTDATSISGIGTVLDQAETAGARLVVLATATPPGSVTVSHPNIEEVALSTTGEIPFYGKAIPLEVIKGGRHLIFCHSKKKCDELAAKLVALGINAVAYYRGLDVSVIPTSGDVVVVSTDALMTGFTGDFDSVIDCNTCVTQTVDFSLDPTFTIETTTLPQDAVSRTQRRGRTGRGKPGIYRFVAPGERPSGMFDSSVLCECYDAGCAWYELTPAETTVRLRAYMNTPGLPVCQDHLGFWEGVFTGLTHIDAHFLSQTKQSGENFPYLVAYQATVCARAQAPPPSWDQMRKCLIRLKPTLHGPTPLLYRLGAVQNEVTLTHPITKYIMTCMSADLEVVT

One may read the EC50 as the concentration that produces a half-maximal response. The IC50 is the point on the concentration scale where inhibition reaches its midpoint. On to `N[C@H]1CCCCC/C=C\[C@@H]2C[C@@]2(C(=O)NS(=O)(=O)C2CC2)NC(=O)[C@@H]2C[C@@H](OC(=O)N3Cc4cccc(F)c4C3)CN2C1=O` [Compound 107], for which the 50% effective concentration (EC50) in assay [1] (setting [3]) was under 10000 nM. Moreover, the IC50 in assay [2] (setting [4]) is under 100 nM.

`CC(C)(C)OC(=O)N[C@H]1CCCCC/C=C\[C@@H]2C[C@@]2(C(=O)NS(=O)(=O)C2CC2)NC(=O)[C@@H]2C[C@@H](OC(=O)N3CCc4c(F)ccc(F)c4C3)CN2C1=O` [Compound 258]: the EC50 in assay [1] (setting [3]) is under 100 nM. In assay [2] (setting [4]), the IC50 is under 100 nM.

On to `O=C(N[C@H]1CCCCC/C=C\[C@@H]2C[C@@]2(C(=O)NS(=O)(=O)NCC(F)(F)F)NC(=O)[C@@H]2C[C@@H](OC(=O)N3Cc4cccc(F)c4C3)CN2C1=O)OC1CCCC1` [Compound 223], for which the EC50 in assay [1] (setting [3]) was under 1000 nM. Further, in assay [2] (setting [4]), the IC50 was under 100 nM.

On to `O=C(Cc1ccc(C(F)(F)F)cc1)N[C@H]1CCCCC/C=C\[C@@H]2C[C@@]2(C(=O)NS(=O)(=O)C2CC2)NC(=O)C2CCCN2C1=O` (stereo partly shown) [Compound 2142], for which the EC50 in assay [1] (Table 26, read-out: EC50) was over 10000 nM. The IC50 in assay [2] (setting [4]) is under 10000 nM.

As for `CN(C)S(=O)(=O)NC(=O)[C@@]12C[C@H]1/C=C\CCCCC[C@H](N)C(=O)N1C[C@H](OC(=O)N3Cc4ccccc4C3)C[C@H]1C(=O)N2` [Compound 202], the EC50 in assay [1] (setting [3]) was under 10000 nM. Also, the IC50 in assay [2] (setting [4]) is under 100 nM.

Regarding `O=C1N[C@]2(C(=O)NS(=O)(=O)C3CC3)C[C@H]2/C=C\CCCCC[C@H](NCc2cc(F)cc(F)c2)C(=O)N2C[C@H](OC(=O)N3Cc4cccc(F)c4C3)C[C@@H]12` [Compound 903], the EC50 in assay [1] (setting [3]) is under 100 nM. For the same compound, in assay [2] (setting [4]), the IC50 is under 100 nM.

Take `CN(C(=O)[C@@]12C[C@H]1/C=C\CCCCC[C@H](NC(=O)OC(C)(C)C)C(=O)N1C[C@H](OC(=O)N3Cc4cccc(F)c4C3)C[C@H]1C(=O)N2)S(=O)(=O)C1CC1` [Compound 264]: in assay [1] (setting [3]), the EC50 was over 10000 nM. Moreover, the IC50 in assay [2] (setting [4]) was under 10000 nM.

As to `CC(C)(C)OC(=O)N[C@H]1CCCOCCC[C@@H]2C[C@@]2(C(=O)NS(=O)(=O)C2CC2)NC(=O)[C@@H]2C[C@@H](OC(=O)N3Cc4cccc(F)c4C3)CN2C1=O` [Compound 1023, (2R,6S,13aR,14aR,16aS)-6-(tert-butoxycarbonylamino)-14a-(cyclopropylsulfonylcarbamoyl)-5,16-dioxohexadecahydro-1H-cyclopropa(e)pyrrolo[2,1-i][1,7,10]oxadiazacyclopentadecin-2-yl 4-fluoroisoindoline-2-carboxylate], the EC50 in assay [1] (setting [3]) was under 1000 nM. In assay [2], this compound came in with an IC50 of under 100 nM.

For `CN(C)CCOc1ccc2c(c1)CN(C(=O)O[C@@H]1C[C@H]3C(=O)N[C@]4(C(=O)O)C[C@H]4/C=C\CCCCC[C@H](NC(=O)OC4CCCC4)C(=O)N3C1)C2` [Compound 133], in assay [1] (setting [3]), the EC50 was under 10000 nM. For the same compound, the IC50 in assay [2] (setting [4]) was under 100 nM.

For the compound `CC(C)OC(=O)N[C@H]1CCCCC/C=C\[C@@H]2C[C@@]2(C(=O)NC#N)NC(=O)C2C[C@@H](OC(=O)N3Cc4cccc(F)c4C3)CN2C1=O` (stereo partly shown) [Compound 639], in assay [1] (setting [3]), the EC50 was over 10000 nM. In addition, in assay [2] (setting [4]), the IC50 was under 1000 nM.

For the compound `CC(C)(C)OC(=O)N[C@H]1CCCCC/C=C\[C@@H]2C[C@@]2(C(=O)NS(=O)(=O)C2CC2)NC(=O)[C@@H]2C[C@@H](OC(=O)N3Cc4c(Cl)ccc(Cl)c4C3)CN2C1=O` [Compound 145], in assay [1] (setting [3]), the EC50 is under 100 nM. Besides, in assay [2] (setting [4]), the IC50 was under 100 nM.

In the case of `CN(C)S(=O)(=O)NC(=O)[C@@]12C[C@H]1/C=C\CCC(F)(F)CC[C@H](NC(=O)OC(C)(C)C)C(=O)N1C[C@H](OC(=O)N3Cc4cccc(F)c4C3)C[C@H]1C(=O)N2` [Compound 1015], in assay [1] (setting [3]), the EC50 was under 100 nM. Also, the IC50 in assay [2] (setting [4]) was under 100 nM.

As for `[2H]C([2H])([2H])N(C([2H])([2H])[2H])S(=O)(=O)NC(=O)[C@@]12C[C@H]1/C=C\CCCCC[C@H](NC(=O)OC(C)(C)C)C(=O)N1C[C@H](OC(=O)N3Cc4ccccc4C3)C[C@H]1C(=O)N2` [Compound 204], the EC50 in assay [1] (setting [3]) is under 100 nM. Also, in assay [2] (setting [4]), the half-maximal inhibitory concentration (IC50) was under 100 nM.

For the compound `CCN(C)S(=O)(=O)NC(=O)[C@@]12C[C@H]1/C=C\CCCCC[C@H](NC(=O)OC(C)(C)C)C(=O)N1C[C@H](OC(=O)N3Cc4ccccc4C3)C[C@H]1C(=O)N2` [Compound 200], in assay [1] (setting [3]), the EC50 is under 100 nM. Also, the IC50 in assay [2] (setting [4]) is under 100 nM.
